# “Also recorded” adds a separate entry of the source.
# How the values were obtained:
# [1] = clinical; settings: human, in vivo
# [2] = test system: patients with moderately to severely active rheumatoid arthritis, inadequate response to MTX; experiment: Trial RA-II (NCT02706951); format: in vivo, human; settings: RA-II through Week 14; 30 mg monotherapy
# From the text: The primary endpoint was the proportion of patients who achieved an ACR20 response at Week 14. Key secondary endpoints included DAS28-CRP ≤3.2, DAS28-CRP <2.6, and change from baseline in HAQ-DI at Week 14.
# [3] = biological target: CYP3A4 (Homo sapiens, UniProt P08684); experiment: In vitro metabolism / substrate assessment, CYP3A4; format: in vitro ADME
# [4] = test system: patients with rheumatoid arthritis; experiment: Rheumatoid arthritis Phase 3 trials, integrated datasets (RA-I to RA-V)
# From the text: Exposure adjusted incidence rates were adjusted by trial for all the adverse events reported in this section.
# Patients 18 years of age and older were eligible to participate. The presence of at least 6 tender and 6 swollen joints and evidence of systemic inflammation based on elevation of hsCRP was required at baseline.
# [5] = human, in vivo
# [6] = Drug interaction studies: effect of co-administered drugs on upadacitinib pharmacokinetics (incl. Study M13-401); format: in vivo, human
# From the text: The data from Study M13-401 are provided in Table 38 and Table 39, which show the expected increase in Cmax and AUCss, respectively, in patients with UC across all dose levels with co-administration of CYP3A4 inhibitors.
# [7] = Population pharmacokinetic analyses; format: in vivo, human
# Protocol: Renal clearance indicates some involvement of renal transporters in the excretion. Renal secretion is however not estimated to contribute to more than 25% of the elimination. […] As used herein, reference to “severe renal impairment” means a creatinine clearance of less than 30 mL/min.
# The effect of different intrinsic factors has been evaluated in dedicated PK studies in renal and hepatic impairment and in Asian subjects, and by population pharmacokinetic analysis from the phase 2/3 studies. […] There are limited data in patients aged 75 years and older and there is no pharmacokinetic data in children and adolescents.
# [8] = test system: pregnant rats; experiment: Oral embryo-fetal development studies in rats
# [9] = Model-estimated and predicted upadacitinib Cmax and AUCss in UC patients with severe renal impairment; set-up: species or system human; settings: for Predicted Cmax in UC Patients with Severe Renal Impairment based on results from M13-551, Median: model-estimated value multiplied by 1.14; for Predicted AUCss in UC Patients with Severe Renal Impairment based on results from M13-551, Median: model-estimated value multiplied by 1.44
# Protocol: Therefore, it is recommended that the induction dose is reduced in UC patients with severe renal impairment to 30 mg QD.
# Therefore, it is recommended that the maintenance dose is reduced in UC patients with severe renal impairment to 15 mg QD.
# [10] = test system: pregnant rabbits; experiment: Oral embryo-fetal developmental study in rabbits; format: in vivo
# [11] = test system: pregnant female rats; experiment: Oral pre- and post-natal development study in rats; format: in vivo; settings: GD 6 through lactation day 20, AUC basis, 10 mg/kg/day
# [12] = test system: P-gp, BCRP, BSEP, OATP1B1, OATP1B3, OCT1, OCT2, OAT1, OAT3, MATE1, MATE2K; experiment: In vitro transporter inhibition; format: in vitro ADME; settings: clinically relevant concentrations
# [13] = Plasma protein binding and blood to plasma partitioning; format: in vitro ADME; settings: human, read-out: Bound to plasma proteins (converted)
# [14] = test system: QTc interval; experiment: Cardiac electrophysiology (QTc); format: in vivo, human
# [15] = test system: lactating female Sprague-Dawley rats; experiment: Milk excretion in lactating rats; format: in vivo, rat; settings: single oral 10 mg/kg radiolabeled
# From the text: (§1) Drug exposure was approximately 30-fold greater in milk than in maternal plasma based on AUC0-t values. Approximately 97% of drug-related material in milk was parent drug.
# [16] = Milk excretion in lactating rats; format: in vivo, rat; settings: female, Sprague-Dawley, rat, milk (relative to maternal plasma); single oral 10 mg/kg radiolabeled, post-partum days 7-8; read-out: Drug exposure in milk vs maternal plasma (AUC0-t)
# From the text: as §1
# [17] = test system: CYP3A4, CYP2B6, CYP1A2; experiment: In vitro CYP induction; format: in vitro ADME
# [18] = test system: CYP1A2, 2B6, 2C8, 2C9, 2C18, 2C19, 2J2, FMO1, FMO3, OATP1B1, OATP1B3, OCT1; experiment: In vitro substrate assessment, other enzymes and transporters; format: in vitro ADME
# [19] = test system: human peripheral blood lymphocytes; experiment: In vitro chromosome aberration assay; format: cell-based
# [20] = test system: CYP1A2, CYP2B6, CYP2C8, CYP2C9, CYP2C19, CYP2D6, CYP3A4; experiment: In vitro CYP inhibition; format: in vitro ADME; settings: clinically relevant concentrations
# [21] = test system: IL-6 (JAK1/JAK2)-induced STAT3 and IL-7 (JAK1/JAK3)-induced STAT5 phosphorylation; experiment: IL-6 induced STAT3 and IL-7 induced STAT5 phosphorylation in whole blood of healthy volunteers; format: in vivo, human; settings: immediate release formulation
# Protocol: The maximal inhibition was observed 1 hour after dosing which returned to near baseline by the end of dosing interval.
# [22] = 12-month exposure dataset (RA-I, II, III, V), 30 mg
# [23] = MTX-controlled RA-I and RA-II, 12/14 weeks, 30 mg monotherapy
# [24] = RA-III and RA-V placebo-controlled, 12 weeks, 30 mg
# [25] = e.g. ketoconazole, Study M13-401
# [26] = ketoconazole 400 mg QD, upadacitinib IR formulation
# [27] = rifampicin 600 mg QD for 8 days
# CYP3A4, sequence (P08684 whole entry): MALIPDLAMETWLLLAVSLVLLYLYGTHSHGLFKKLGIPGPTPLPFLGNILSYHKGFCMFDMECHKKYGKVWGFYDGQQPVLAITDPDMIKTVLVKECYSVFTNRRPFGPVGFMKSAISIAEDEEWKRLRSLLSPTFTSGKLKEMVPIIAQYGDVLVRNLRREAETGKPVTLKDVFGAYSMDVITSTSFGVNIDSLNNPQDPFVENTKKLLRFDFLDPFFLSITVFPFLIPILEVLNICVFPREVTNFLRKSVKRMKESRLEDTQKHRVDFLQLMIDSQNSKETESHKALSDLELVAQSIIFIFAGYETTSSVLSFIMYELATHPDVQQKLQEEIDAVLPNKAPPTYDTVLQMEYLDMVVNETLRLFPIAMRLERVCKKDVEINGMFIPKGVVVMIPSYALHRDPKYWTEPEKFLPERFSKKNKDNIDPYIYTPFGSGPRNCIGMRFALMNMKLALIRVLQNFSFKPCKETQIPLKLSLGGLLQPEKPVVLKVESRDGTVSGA
smiles,measurement,setting,value
"CC[C@@H]1CN(C(=O)NCC(F)(F)F)C[C@@H]1c1cnc2cnc3[nH]ccc3n12 [upadacitinib, (3S,4R)-3-Ethyl-4-(3H-imidazo[1,2-a]pyrrolo[2,3-e]pyrazin-8-yl)-N-(2,2,2-trifluoroethyl)pyrrolidine-1-carboxamide hydrate (2:1)]",half-life,[1],480 to 840 min
same,Tmax,[1]; po,2 to 4 h
same,"Venous thrombosis, number of patients",[2],0 patients
same,Substrate of / metabolised by CYP3A4,[3],substrate; also recorded: mediated by mainly CYP3A4; also recorded: metabolized in vitro by CYP3A4
same,"Opportunistic infections (excluding tuberculosis), number of patients",[4]; [22],15 patients
same,"Opportunistic infections (excluding tuberculosis), rate",[4]; [22],1.4 per 100 patient-years
same,"Active tuberculosis, number of patients","[4]; 12-month exposure dataset, 30 mg",1 patient
same,"Opportunistic infections (excluding tuberculosis), number of patients",[4]; [23],4 patients
same,"Opportunistic infections (excluding tuberculosis), rate",[4]; [23],3.2 per 100 patient-years
same,Active tuberculosis cases,"[4]; RA MTX-controlled period, 30 mg monotherapy",no active cases
same,Change in mean IgG and IgM levels from baseline,"[4]; RA patients, controlled period",small decreases
same,Change in mean ALC from baseline,"[4]; RA patients, up to Week 36","small, transient increase"
same,Active tuberculosis cases,"[4]; RA placebo-controlled period, 30 mg",no active cases
same,"Opportunistic infections (excluding tuberculosis), number of patients",[4]; [24],6 patients
same,"Opportunistic infections (excluding tuberculosis), rate",[4]; [24],7.1 per 100 patient-years
same,AUCinf increase with high-fat/high-calorie meal,[5],29%
same,Accumulation after multiple once-daily administrations,[5],minimal accumulation
same,Cmax increase with high-fat/high-calorie meal,[5],39%
same,Contribution of renal secretion to elimination,[5],≤ 25%
same,Dose proportionality of plasma exposures,[5],proportional to dose
same,Time to steady-state plasma concentrations,[5],≤ 4 days
same,Upadacitinib exposure with methotrexate,[6]; co-administration with methotrexate,no effect
same,"Upadacitinib plasma exposure with strong CYP2D6 inhibitors, OATP1B inhibitors, MTX, pH modifying medications or statins",[6]; concomitant administration,no effect
same,Upadacitinib AUC (AUCinf) increase with strong CYP3A4 inhibitor,[6]; [25],75%
same,Upadacitinib Cmax increase with strong CYP3A4 inhibitor,[6]; [25],70%
same,Upadacitinib half-life with ketoconazole,[6]; ketoconazole 400 mg QD,no effect on half-life
same,Upadacitinib AUC increase with ketoconazole,[6]; [26],1.8 fold
same,Upadacitinib Cmax increase with ketoconazole,[6]; [26],1.7 fold
same,Upadacitinib AUC decrease with rifampicin,[6]; [27],60%
same,Upadacitinib Cmax decrease with rifampicin,[6]; [27],50%
same,"Plasma exposure, adolescent / pediatric (12 years and older, at least 40 kg) vs adult subjects",[7]; atopic dermatitis studies,similar; also recorded: No meaningful difference
same,Age as covariate on CL/F and Vc/F,[7]; continuous and discrete (adolescents ≥40 kg vs adults),not found to be statistically significant
same,"Effect of pH modifying medications (antacids, proton pump inhibitors) on plasma exposures",[7]; in vitro assessments and population PK analyses,not expected to affect
same,"Effect of body weight, gender, race, ethnicity, age on upadacitinib pharmacokinetics / exposure",[7]; in vivo,no relevant effects; also recorded: did not have a clinically meaningful effect
same,Pharmacokinetics in geriatric patients (>65 years) vs younger adults,[7]; in vivo,No clinically meaningful differences
same,"Effect of CYP2D6 metabolic phenotype (extensive vs poor metabolizers) on upadacitinib CL/F, pharmacokinetics",[7]; population PK analysis,comparability; also recorded: no effect
same,"Exposure multiple with additional skeletal malformations and decreased fetal body weights, no maternal toxicity","[8]; AUC basis, 75 mg/kg/day",approximately 48 times the MRHD of 30 mg
same,"Exposure multiple with teratogenicity (misshapen humerus, bent scapula)","[8]; GD 6 to 17, AUC basis, 5 mg/kg/day and higher",≥ 1.0 times the MRHD of 30 mg
same,"Exposure multiple with developmental toxicity (skeletal malformations, decreased fetal body weights)",[8]; oral,≥ 2 times the 15 mg dose
same,Exposure multiple with no developmental toxicity,"[8]; oral, organogenesis",approximately 0.3 times the 15 mg dose
same,"Predicted Cmax in UC Patients with Severe Renal Impairment based on results from M13-551, Median",[9]; 7.5 mg treatment group,23.0 ng/mL
same,"Predicted AUCss in UC Patients with Severe Renal Impairment based on results from M13-551, Median",[9]; 7.5 mg treatment group,232 ng·h/mL
same,"Predicted Cmax in UC Patients with Severe Renal Impairment based on results from M13-551, Median",[9]; 15 mg treatment group,47.1 ng/mL
same,"Predicted AUCss in UC Patients with Severe Renal Impairment based on results from M13-551, Median",[9]; 15 mg treatment group,492 ng·h/mL
same,"Predicted Cmax in UC Patients with Severe Renal Impairment based on results from M13-551, Median",[9]; 30 mg treatment group,89.5 ng/mL
same,"Predicted AUCss in UC Patients with Severe Renal Impairment based on results from M13-551, Median",[9]; 30 mg treatment group,940 ng·h/mL
same,"Predicted Cmax in UC Patients with Severe Renal Impairment based on results from M13-551, Median",[9]; 45 mg treatment group,138 ng/mL
same,"Predicted AUCss in UC Patients with Severe Renal Impairment based on results from M13-551, Median",[9]; 45 mg treatment group,1431 ng·h/mL
same,"Exposure multiple with developmental toxicity (cardiovascular malformations, post-implantation loss, decreased fetal body weights)",[10],≥ 17 times the 15 mg dose
same,Exposure multiple with no developmental toxicity,[10]; organogenesis,~2.5 times the 15 mg dose
same,Exposure multiple with no maternal or developmental toxicity,[11],approximately 1.6 times the MRHD of 30 mg
same,"Inhibition of transporters (P-gp, BCRP, OATP1B1, OATP1B3, OCT1, OCT2, OAT1, OAT3, MATE1, MATE2K)",[12],does not inhibit; also recorded: no in vivo relevant inhibition
same,fraction unbound,[13],0.48
same,Effect on QTc interval,[14]; 2.5 times the mean exposure of the 45 mg once daily dose,no clinically relevant effect
same,Effect on QTc interval,[14]; 6 times the mean maximum exposure of the 15 mg once daily dose,no clinically relevant effect
same,Parent drug share of drug-related material in milk,[15],Approximately 97%
same,Kp,[16],~30
same,Induction of CYP1A2,[17],borderline
same,Induction of CYP3A4 and CYP2B6,[17],inducer
same,"Substrate of CYP1A2, 2B6, 2C8, 2C9, 2C18, 2C19, 2J2, FMO1, FMO3, OATP1B1, OATP1B3 or OCT1",[18],not a substrate
same,"Genotoxicity, chromosome aberration",[19],tested negatively
same,"Inhibition (or induction) of CYP1A2, 2B6, 2C8, 2C9, 2C19, 2D6, 3A4",[20],does not inhibit or induce; also recorded: no in vivo relevant inhibition
same,Inhibition of IL-6-induced STAT3 and IL-7-induced STAT5 phosphorylation in whole blood,[21],dose- and concentration-dependent inhibition
same,Time of maximal inhibition after dosing,[21],1 h

# Source: patent US20230233555A1 (AbbVie Inc., priority 2022, published 2023)
